Data: US12612358B2, “Resorcinol-based compounds and uses thereof” (priority 2020, dated 2026)
Read-outs that look alike come from different tables or passages of the source.

Columns and labels:
[1] = tested on: MDA-MB231 D3H; test: CellTiter-Glo viability/proliferation assay, MDA-MB231 breast cancer cells; type: cell-based; conditions: Homo sapiens, MDA-MB-231, 48 h, read-out: Inhibition of MDA-MB231 D3H
[2] = tested on: SKOv3 (ovarian); test: Cell proliferation, SKOv3 ovarian cancer cells; type: cell-based; conditions: Homo sapiens, SK-OV-3, read-out: IC50 category
Excerpt: Effects of Compound-5B on cell proliferation in additional cancer cells: To determine whether Compound-5B would have broad based anticancer activity, we study whether Compound-5B would be effective at inhibiting cell proliferation in a variety of cancers overexpressing Id-1. The assay conditions used were identical to those presented for breast and pancreatic cancers. Indeed, Compound-5B was potent at inhibiting cell proliferation in blood cancer (leukemia), glioblastoma, prostate, and ovarian cancer.

[3] = tested on: PANC-1 tumors; test: PANC-1 subcutaneous xenograft in athymic nu/nu mice; type: in vivo; conditions: PANC-1 tumor mice; Compound-5B 10 mg/kg i.p. daily, gemcitabine 50 mg/kg i.p. three times a week
[4] = tested on: PANC-1; test: CellTiter-Glo cell proliferation, PANC-1 pancreatic cancer cells; type: cell-based, human; conditions: Homo sapiens; PANC-1 (by context); read-out: IC50, inhibition of cell viability/proliferation
Excerpt: Cell culture and treatment of pancreatic cancer cell lines: Pancreatic cancer cells lines BxPC-3, SW1990, and PANC-1 used in the experiments presented herein can be obtained from ATCC. The cells can be cultured and passaged in complete growth medium (RPMI-1640, Dulbecco's Modified Eagle Medium, or Leibovitz's L-15 medium) that has been supplemented with fetal bovine serum to a final concentration of 10%.
Effects of Compound-5B on proliferation and Id-1 expression in pancreatic cell lines. Compound-5B was next tested for inhibition of cell viability/proliferation in the three pancreatic cancer cell lines and two primary patient-derived cancer cell lines. Compound-5B inhibited cell viability/proliferation of all the cancer cell lines (Table 2). The culturing condition for the pancreatic cell lines was similar to those used in the breast cancer lines, with the exception of the primary patient-derived pancreatic cancer cell lines (PANC9 and PANC13). For determining inhibition of cell proliferation in patient-derived pancreatic cancer cells were cultured in a T75 ultra low attachment flasks with DMEM/F12 media supplemented with B27, penicillin/streptomycin (10,000 u/mL), 50 µg/mL human epidermal growth factor (hEGF), 50 μg/mL human fibroblast growth factor, and 5 μg/mL heparin. Cells were plated in a 384-well plate and incubated for three days to promote the formation of tumorspheres. Cells were then treated with Compound-5B for three days. Cell proliferation of pancreatic cells in the presence of drug was measured using the CellTiter-Glo luminescent Assay and IC50 values were calculated (Table 2). The IC50 and corresponding 95% confidence limits (CL) were calculated using non-linear regression analysis.

[5] = CellTiter-Glo, two-day treatment

Row | SMILES | IC50 [1, 5] [nM] | also measured
1 | CC(C)(c1ccccc1)c1cc(O)c(C(=O)Nc2ccccc2)c(O)c1 [Compound 17B, 2,6-dihydroxy-N-phenyl-4-(2-phenylpropan-2-yl)benzamide] | < 500 | –
2 | CCCCCCC(C)(C)c1cc(O)c(C(=O)Nc2ccccn2)c(O)c1 [Compound 5C, 2,6-dihydroxy-4-(2-methyloctan-2-yl)-N-(cyridin-2-yl) benzamide] | < 500 | –
3 | CCCCCCC(C)(C)c1cc(O)c(C(=O)Nc2ccncn2)c(O)c1 [Compound 5D, 2,6-dihydroxy-4-(2-methyloctan-2-yl)-N-(pyrimidin-4-yl)benzamide] | < 500 | –
4 | CC(C)(c1cc(O)c(C(=O)Nc2ccccc2)c(O)c1)C1CCCCC1 [Compound 17C, 4-(2-cyclohexylpropan-2-yl)-2,6-dihydroxy-N-phenylbenzamide] | – | IC50 [1]: < 500 nM
5 | CCCCCCC(C)(C)c1cc(O)c(C(=O)NC2CCCCC2)c(O)c1 [Compound 5A, N-cyclohexyl-2,6-dihydroxy-4-(2-methyloctan-2-yl)benzamide] | – | IC50 [1]: < 500 nM
6 | CC(C)(CCCCN1CCOCC1)c1cc(O)c(C(=O)Nc2ccccc2)c(O)c1 [Compound 26A, 2,6-dihydroxy-4-(2-methyl-6-morpholinohexan-2-yl)-N-phenylbenzamide] | 1000 to 5000 | –
7 | CCCCCCC(C)(C)c1cc(O)c(C(=O)Nc2ccc(N3CCN(C)CC3)cc2)c(O)c1 [Compound 5F, 2,6-dihydroxy-4-(2-methyloctan-2-yl)-N-(4-(4-methylpiperazin-1-yl)phenyl)benzamide] | > 15000 | –
8 | CC(C)(c1cc(O)c(C(=O)Nc2ccccn2)c(O)c1)C1CCCCC1 [Compound 17D, 4-(2-cyclohexylpropan-2-yl)-2,6-dihydroxy-N-(pyridin-2-yl)benzamide] | – | IC50 [1]: < 500 nM
9 | CCCCCCC(C)(C)c1cc(O)c(C(=O)N(C)c2ccccc2)c(O)c1 [Compound 5E, 2,6-dihydroxy-N-methyl-4-(2-methyloctan-2-yl)-N-phenylbenzamide] | – | IC50 [2]: 500 to 1000 nM; IC50 [1]: 1000 to 5000 nM
10 | CC(C)(c1ccccc1)c1cc(O)c(C(=O)NC2CCCCC2)c(O)c1 [Compound 17A, N-cyclohexyl-2,6-dihydroxy-4-(2-phenylpropan-2-yl)benzamide] | – | IC50 [1]: 500 to 1000 nM
11 | CCCCCCC(C)(C)c1cc(O)c(C(=O)Nc2cccc(N3CCN(C)CC3)c2)c(O)c1 [Compound 5G, 2,6-dihydroxy-4-(2-methyloctan-2-yl)-N-(3-(4-methylpiperazin-1-yl)phenyl)benzamide] | 1000 to 5000 | –
12 | CCCCCCC(C)(C)c1cc(O)c(C(=O)Nc2ccc(N3CCOCC3)cc2)c(O)c1 [Compound 5I, 2,6-dihydroxy-4-(2-methyloctan-2-yl)-N-(4-morpholinophenyl)benzamide] | < 500 | –
13 | CCCCCCC(C)(C)c1cc(O)c(C(=O)Nc2cccc(N3CCOCC3)c2)c(O)c1 [Compound 5J, 2,6-dihydroxy-4-(2-methyloctan-2-yl)-N-(3-morpholinophenyl)benzamide] | < 500 | –
14 | Nc1ccn([C@@H]2O[C@H](CO)[C@@H](O)C2(F)F)c(=O)n1 [gemcitabine, reference compound] | – | weight loss (metric of drug toxicity) [3]: significant weight loss
15 | CCCCCc1cc(O)c(C(=O)Nc2ccccc2)c(O)c1 [Compound 11, 2,6-dihydroxy-4-pentyl-N-phenylbenzamide] | < 500 | –
16 | CCCCCCC(C)(C)c1cc(O)c(C(=O)Nc2ccccc2N2CCN(C)CC2)c(O)c1 [Compound 5H, 2,6-dihydroxy-4-(2-methyloctan-2-yl)-N-(2-(4-methylpiperazin-1-yl)phenyl)benzamide] | 500 to 1000 | –
17 | C=C(C)[C@@H]1CCC(C)=C[C@H]1c1c(O)cc(CCCCC)cc1O [CBD, cannabidiol, reference compound] | – | IC50 [4]: 1900 nM
18 | CCCCCCC(C)(C)c1cc(O)c(C(=O)Nc2ccccc2N2CCOCC2)c(O)c1 [Compound 5K, 2,6-dihydroxy-4-(2-methyloctan-2-yl)-N-(2-morpholinophenyl)benzamide] | < 500 | –
